Experimental data: patent publication US20030224942A1, “Alkylamino-1,3,5-triazines, processes for their preparation and their use as herbicides and plant growth regulators” (priority 2001, published 2003)

Assays:
[1] = tested on: Cyperus spp., Echinochloa spp., Digitaria spp., Sagitaria spp. and Scirpus spp.; assay: Action on harmful plants in rice (paddy rice conditions, visual scoring); type: in vivo, typical rice weeds (gramineous and broad-leaved); settings: applied into the dammed water, visual scoring about three weeks after application
Procedure, shortened: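 Under paddy conditions with 2-3 cm dammed water, transplanted and sown rice plus weeds were treated at three-leaf stage (E. crus-galli at 1.5 leaves). Pots stayed in greenhouse under optimum growth conditions for the test period, with visual assessment of damage.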

[2] = tested on: Chenopodium spp., Papaver spp., Polygonum spp., Veronica spp. or Viola spp.; assay: Post-emergence effect on weeds (greenhouse pot test, visual scoring); type: in vivo, monocotyledonous and dicotyledonous weeds; settings: treated at three-leaf stage; visual scoring after about 3 to 4 weeks; application rate of 0.5 kg and less of active substance per hectare

Compound	herbicidal activity against harmful plants which are typical for rice crops [1]	herbicidal activity post-emergence against harmful plants [2]
CC(C)(F)c1nc(N)nc(NCc2ccc(F)c(C3CC3)c2)n1 [Product P16.916]	very good herbicidal activity	very good herbicidal activity
CC(C)(F)c1nc(N)nc(NCc2cc(F)c(C3CC3)c(F)c2)n1 [Product P16.960]	very good herbicidal activity	very good herbicidal activity
CC(C)(F)c1nc(N)nc(NCc2cccc(C(F)=C(F)F)c2)n1 [Product P16.1567]	very good herbicidal activity	very good herbicidal activity
CC(C)(F)c1nc(N)nc(NCc2ccc(C(F)=C(F)F)cc2)n1 [Product P16.1568]	very good herbicidal activity	very good herbicidal activity
C#Cc1cccc(CNc2nc(N)nc(C(C)(C)F)n2)c1 [Product P16.1579]	very good herbicidal activity	very good herbicidal activity
C#Cc1ccc(CNc2nc(N)nc(C(C)(C)F)n2)cc1 [Product P16.1580]	very good herbicidal activity	very good herbicidal activity
CC#Cc1cccc(CNc2nc(N)nc(C(C)(C)F)n2)c1 [Product P16.1582]	very good herbicidal activity	very good herbicidal activity
CC#Cc1ccc(CNc2nc(N)nc(C(C)(C)F)n2)cc1 [Product P16.1583]	very good herbicidal activity	very good herbicidal activity
CC(C)(F)c1nc(N)nc(NCc2cccc(C3CC3)c2)n1 [Product P16.1603]	very good herbicidal activity	very good herbicidal activity
CC(C)(F)c1nc(N)nc(NCc2ccc(C3CC3)cc2)n1 [Product P16.1604]	very good herbicidal activity	very good herbicidal activity
CC(Nc1nc(N)nc(C(C)(C)F)n1)c1ccc(F)c(C(F)=C(F)F)c1 (stereo not drawn) [Product P17.5]	very good herbicidal activity	very good herbicidal activity
CC(Nc1nc(N)nc(C(C)(C)F)n1)c1cc(F)c(C(F)=C(F)F)c(F)c1 (stereo not drawn) [Product P17.49]	very good herbicidal activity	very good herbicidal activity
C#Cc1cc(C(C)Nc2nc(N)nc(C(C)(C)F)n2)ccc1F (stereo not drawn) [Product P17.309]	very good herbicidal activity	very good herbicidal activity
C#Cc1ccc(C(C)Nc2nc(N)nc(C(C)(C)F)n2)cc1C (stereo not drawn) [Product P17.335]	very good herbicidal activity	very good herbicidal activity
C#Cc1c(C)cc(C(C)Nc2nc(N)nc(C(C)(C)F)n2)cc1C (stereo not drawn) [Product P17.348]	very good herbicidal activity	very good herbicidal activity
C#Cc1c(F)cc(C(C)Nc2nc(N)nc(C(C)(C)F)n2)cc1F (stereo not drawn) [Product P17.352]	very good herbicidal activity	very good herbicidal activity
C#Cc1ccc(C(C)Nc2nc(N)nc(C(C)(C)F)n2)cc1C#C (stereo not drawn) [Product P17.358]	very good herbicidal activity	very good herbicidal activity
C#Cc1cc(C#C)cc(C(C)Nc2nc(N)nc(C(C)(C)F)n2)c1 (stereo not drawn) [Product P17.369]	very good herbicidal activity	very good herbicidal activity
CC#Cc1cc(C(C)Nc2nc(N)nc(C(C)(C)F)n2)ccc1F (stereo not drawn) [Product P17.384]	very good herbicidal activity	very good herbicidal activity
CC#Cc1c(C)cc(C(C)Nc2nc(N)nc(C(C)(C)F)n2)cc1C (stereo not drawn) [Product P17.424]	very good herbicidal activity	very good herbicidal activity
CC#Cc1c(F)cc(C(C)Nc2nc(N)nc(C(C)(C)F)n2)cc1F (stereo not drawn) [Product P17.428]	very good herbicidal activity	very good herbicidal activity
CC#Cc1cc(C(C)Nc2nc(N)nc(C(C)(C)F)n2)cc(C#CC)c1F (stereo not drawn) [Product P17.450]	very good herbicidal activity	very good herbicidal activity
C=C=Cc1c(F)cc(C(C)Nc2nc(N)nc(C(C)(C)F)n2)cc1F (stereo not drawn) [Product P17.656]	very good herbicidal activity	very good herbicidal activity
CCCCC#Cc1cc(C(C)Nc2nc(N)nc(C(C)(C)F)n2)ccc1F (stereo not drawn) [Product P17.688]	very good herbicidal activity	very good herbicidal activity
CCCCC#Cc1c(C)cc(C(C)Nc2nc(N)nc(C(C)(C)F)n2)cc1C (stereo not drawn) [Product P17.728]	very good herbicidal activity	very good herbicidal activity
CC(F)C#Cc1cc(C(C)Nc2nc(N)nc(C(C)(C)F)n2)ccc1F (stereo not drawn) [Product P17.764]	very good herbicidal activity	very good herbicidal activity
CC(O)C#Cc1cc(C(C)Nc2nc(N)nc(C(C)(C)F)n2)ccc1F (stereo not drawn) [Product P17.840]	very good herbicidal activity	very good herbicidal activity
CC(Nc1nc(N)nc(C(C)(C)F)n1)c1ccc(F)c(C2CC2)c1 (stereo not drawn) [Product P17.916]	very good herbicidal activity	very good herbicidal activity
CC(Nc1nc(N)nc(C(C)(C)F)n1)c1cc(F)c(C2CC2)c(F)c1 (stereo not drawn) [Product P17.960]	very good herbicidal activity	very good herbicidal activity
CC(Nc1nc(N)nc(C(C)(C)F)n1)c1cccc(C(F)=C(F)F)c1 (stereo not drawn) [Product P17.1567]	very good herbicidal activity	very good herbicidal activity
